From PubChem BioAssay (NCI)
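Tested at 5 concentrations; 48 h exposure; 96-well plates; endpoints linearly interpolated, else capped at highest concentration. Here, GI50 denotes the concentration required for 50% inhibition of growth. TGI: concentration producing complete growth inhibition.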

Experiments:
Assay in all cases: NCI anticancer screen, dose series, 48 h
786-0 renal = tested on: 786-0 renal
A549 NSCLC = tested on: A549 NSCLC
ACHN renal = tested on: ACHN renal
BT-549 breast = tested on: BT-549 breast
CAKI-1 renal = tested on: CAKI-1 renal
CCRF-CEM leukemia = tested on: CCRF-CEM leukemia
COLO 205 colon = tested on: COLO 205 colon
DU-145 prostate = tested on: DU-145 prostate
EKVX NSCLC = tested on: EKVX NSCLC
HCC-2998 colon = tested on: HCC-2998 colon
HCT-116 colon = tested on: HCT-116 colon
HCT-15 colon = tested on: HCT-15 colon
HL-60(TB) leukemia = tested on: HL-60(TB) leukemia
HOP-62 NSCLC = tested on: HOP-62 NSCLC
HS 578T breast = tested on: HS 578T breast
HT29 colon = tested on: HT29 colon
IGROV1 ovarian = tested on: IGROV1 ovarian
K-562 leukemia = tested on: K-562 leukemia
KM12 colon = tested on: KM12 colon
LOX IMVI melanoma = tested on: LOX IMVI melanoma
M14 melanoma = tested on: M14 melanoma
MALME-3M melanoma = tested on: MALME-3M melanoma
MCF7 breast = tested on: MCF7 breast
MDA-MB-231 breast = tested on: MDA-MB-231 breast
MDA-N = tested on: MDA-N
MOLT-4 leukemia = tested on: MOLT-4 leukemia
NCI-H226 lung = tested on: NCI-H226 lung
NCI-H23 lung = tested on: NCI-H23 lung
NCI-H460 lung = tested on: NCI-H460 lung
NCI-H522 lung = tested on: NCI-H522 lung
NCI/ADR-RES ovarian = tested on: NCI/ADR-RES ovarian
OVCAR-4 ovarian = tested on: OVCAR-4 ovarian
OVCAR-5 ovarian = tested on: OVCAR-5 ovarian
OVCAR-8 ovarian = tested on: OVCAR-8 ovarian
PC-3 prostate = tested on: PC-3 prostate
SF-268 CNS = tested on: SF-268 CNS
SF-295 CNS = tested on: SF-295 CNS
SF-539 CNS = tested on: SF-539 CNS
SK-MEL-2 melanoma = tested on: SK-MEL-2 melanoma
SK-MEL-28 melanoma = tested on: SK-MEL-28 melanoma
SK-MEL-5 melanoma = tested on: SK-MEL-5 melanoma
SK-OV-3 ovarian = tested on: SK-OV-3 ovarian
SN12C renal = tested on: SN12C renal
SNB-19 CNS = tested on: SNB-19 CNS
SNB-75 CNS = tested on: SNB-75 CNS
SR leukemia = tested on: SR leukemia
SW-620 colon = tested on: SW-620 colon
T-47D breast = tested on: T-47D breast
TK-10 renal = tested on: TK-10 renal
U251 CNS = tested on: U251 CNS
UACC-257 melanoma = tested on: UACC-257 melanoma
UACC-62 melanoma = tested on: UACC-62 melanoma
UO-31 renal = tested on: UO-31 renal
A498 renal = tested on: A498 renal
HOP-92 NSCLC = tested on: HOP-92 NSCLC
MDA-MB-435 = tested on: MDA-MB-435
OVCAR-3 ovarian = tested on: OVCAR-3 ovarian
RXF 393 renal = tested on: RXF 393 renal
RPMI-8226 leukemia = tested on: RPMI-8226 leukemia

## O=C1CCC2(CC1)Cc1ccccc1C2O (configuration not stated)
786-0 renal
  TGI: > 100 µM
A549 NSCLC
  TGI: > 100 µM
ACHN renal
  TGI: > 100 µM
BT-549 breast
  TGI: > 100 µM
CAKI-1 renal
  TGI: > 100 µM
CCRF-CEM leukemia
  TGI: > 100 µM
COLO 205 colon
  TGI: > 100 µM
DU-145 prostate
  TGI: > 100 µM
EKVX NSCLC
  TGI: > 100 µM
HCC-2998 colon
  TGI: > 100 µM
HCT-116 colon
  TGI: > 100 µM
HCT-15 colon
  TGI: > 100 µM
HL-60(TB) leukemia
  TGI: > 100 µM
HOP-62 NSCLC
  TGI: > 100 µM
HS 578T breast
  TGI: > 100 µM
HT29 colon
  TGI: > 100 µM
IGROV1 ovarian
  TGI: > 100 µM
K-562 leukemia
  TGI: > 100 µM
KM12 colon
  TGI: > 100 µM
LOX IMVI melanoma
  TGI: > 100 µM
M14 melanoma
  TGI: > 100 µM
MALME-3M melanoma
  TGI: > 100 µM
MCF7 breast
  TGI: > 100 µM
MDA-MB-231 breast
  TGI: > 100 µM
MDA-N
  TGI: > 100 µM
MOLT-4 leukemia
  TGI: > 100 µM
NCI-H226 lung
  TGI: > 100 µM
NCI-H23 lung
  TGI: > 100 µM
NCI-H460 lung
  TGI: > 100 µM
NCI-H522 lung
  TGI: > 100 µM
NCI/ADR-RES ovarian
  TGI: > 100 µM
OVCAR-4 ovarian
  TGI: > 100 µM
OVCAR-5 ovarian
  TGI: > 100 µM
OVCAR-8 ovarian
  TGI: > 100 µM
PC-3 prostate
  TGI: > 100 µM
SF-268 CNS
  TGI: > 100 µM
SF-295 CNS
  TGI: > 100 µM
SF-539 CNS
  TGI: > 100 µM
SK-MEL-2 melanoma
  TGI: > 100 µM
SK-MEL-28 melanoma
  TGI: > 100 µM
SK-MEL-5 melanoma
  TGI: > 100 µM
SK-OV-3 ovarian
  TGI: > 100 µM
SN12C renal
  TGI: > 100 µM
SNB-19 CNS
  TGI: > 100 µM
SNB-75 CNS
  TGI: > 100 µM
SR leukemia
  TGI: > 100 µM
SW-620 colon
  TGI: > 100 µM
T-47D breast
  TGI: > 100 µM
TK-10 renal
  TGI: > 100 µM
U251 CNS
  TGI: > 100 µM
UACC-257 melanoma
  TGI: > 100 µM
UACC-62 melanoma
  TGI: > 100 µM
UO-31 renal
  TGI: > 100 µM

## CC[C@@]1(OC(=O)CN)C(=O)OCc2c1cc1n(c2=O)Cc2cc3cc(N)ccc3nc2-1
786-0 renal
  GI50: < 0.01 µM
  TGI: 0.0409 µM
A498 renal
  GI50: 0.0322 µM
  TGI: 0.337 µM
A549 NSCLC
  GI50: < 0.0176 µM
  TGI: 1.45 µM
ACHN renal
  GI50: < 0.01 µM
  TGI: 0.151 µM
BT-549 breast
  GI50: 1.3 µM
  TGI: > 100 µM
CAKI-1 renal
  GI50: < 0.01 µM
  TGI: 0.0398 µM
CCRF-CEM leukemia
  GI50: < 0.01 µM
COLO 205 colon
  GI50: 0.287 µM
  TGI: 2.22 µM
DU-145 prostate
  GI50: < 0.01 µM
  TGI: > 76.5 µM
EKVX NSCLC
  GI50: 0.465 µM
  TGI: > 100 µM
HCT-15 colon
  GI50: 0.153 µM
  TGI: > 20.3 µM
HOP-62 NSCLC
  GI50: < 0.01 µM
  TGI: 0.847 µM
HOP-92 NSCLC
  GI50: < 0.01 µM
  TGI: 0.0705 µM
HS 578T breast
  GI50: 1.97 µM
  TGI: > 100 µM
HT29 colon
  GI50: 0.127 µM
  TGI: > 100 µM
IGROV1 ovarian
  GI50: 0.0974 µM
  TGI: 1.39 µM
KM12 colon
  GI50: 0.12 µM
  TGI: 0.811 µM
LOX IMVI melanoma
  GI50: < 0.01 µM
  TGI: 0.103 µM
M14 melanoma
  GI50: < 0.01 µM
  TGI: 0.122 µM
MALME-3M melanoma
  GI50: 0.195 µM
  TGI: 2.52 µM
MCF7 breast
  GI50: < 0.01 µM
  TGI: > 100 µM
MDA-MB-231 breast
  GI50: 0.769 µM
  TGI: > 100 µM
MDA-MB-435
  GI50: 0.0802 µM
  TGI: 0.381 µM
MDA-N
  GI50: 0.0772 µM
  TGI: 1.09 µM
MOLT-4 leukemia
  GI50: < 0.01 µM
NCI-H226 lung
  GI50: < 0.0152 µM
  TGI: 0.388 µM
NCI-H23 lung
  GI50: < 0.01 µM
  TGI: 0.0246 µM
NCI-H460 lung
  GI50: < 0.01 µM
NCI-H522 lung
  GI50: 0.0139 µM
  TGI: 0.34 µM
NCI/ADR-RES ovarian
  GI50: < 0.0103 µM
  TGI: 0.125 µM
OVCAR-3 ovarian
  GI50: 0.181 µM
  TGI: 0.848 µM
OVCAR-4 ovarian
  GI50: 0.363 µM
  TGI: 2.7 µM
OVCAR-5 ovarian
  GI50: 0.15 µM
PC-3 prostate
  GI50: 0.0711 µM
  TGI: > 100 µM
RXF 393 renal
  GI50: 0.044 µM
  TGI: 0.371 µM
SF-268 CNS
  GI50: < 0.01 µM
SF-295 CNS
  GI50: < 0.01 µM
  TGI: > 100 µM
SF-539 CNS
  GI50: < 0.01 µM
  TGI: 0.0126 µM
SK-MEL-2 melanoma
  GI50: < 0.0441 µM
  TGI: 0.421 µM
SK-MEL-28 melanoma
  GI50: 0.753 µM
  TGI: > 100 µM
SK-MEL-5 melanoma
  GI50: 0.0181 µM
  TGI: 0.141 µM
SN12C renal
  GI50: < 0.01 µM
  TGI: > 100 µM
SNB-19 CNS
  GI50: < 0.01 µM
  TGI: > 100 µM
SNB-75 CNS
  GI50: < 0.017 µM
SW-620 colon
  GI50: 0.0231 µM
  TGI: > 100 µM
T-47D breast
  GI50: < 0.0359 µM
  TGI: > 100 µM
TK-10 renal
  GI50: 2.19 µM
  TGI: > 100 µM
U251 CNS
  GI50: < 0.01 µM
UACC-257 melanoma
  GI50: 0.0887 µM
  TGI: 1.66 µM
UACC-62 melanoma
  GI50: < 0.01 µM
  TGI: 0.0994 µM
UO-31 renal
  GI50: < 0.0113 µM

## COc1c(O)c(OC)c(C(=O)/C=C/c2ccccc2)c(O)c1OC
786-0 renal
  TGI: > 100 µM
ACHN renal
  TGI: 58.1 µM
CAKI-1 renal
  TGI: > 100 µM
CCRF-CEM leukemia
  TGI: > 100 µM
COLO 205 colon
  TGI: > 100 µM
DU-145 prostate
  TGI: > 100 µM
EKVX NSCLC
  TGI: > 100 µM
HCC-2998 colon
  TGI: > 100 µM
HCT-116 colon
  TGI: 34.5 µM
HCT-15 colon
  TGI: > 100 µM
HL-60(TB) leukemia
  TGI: > 100 µM
HOP-92 NSCLC
  TGI: 81 µM
HS 578T breast
  TGI: > 100 µM
HT29 colon
  TGI: > 100 µM
IGROV1 ovarian
  TGI: > 100 µM
K-562 leukemia
  TGI: > 100 µM
KM12 colon
  TGI: > 100 µM
LOX IMVI melanoma
  TGI: 87.2 µM
M14 melanoma
  TGI: > 100 µM
MALME-3M melanoma
  TGI: > 100 µM
MCF7 breast
  TGI: > 100 µM
MDA-MB-231 breast
  TGI: 72 µM
MDA-MB-435
  TGI: 66.2 µM
MDA-N
  TGI: 46 µM
MOLT-4 leukemia
  TGI: > 100 µM
NCI-H226 lung
  TGI: > 100 µM
NCI-H460 lung
  TGI: 45.8 µM
NCI-H522 lung
  TGI: 31.9 µM
NCI/ADR-RES ovarian
  TGI: 42.6 µM
OVCAR-3 ovarian
  TGI: 51.3 µM
OVCAR-4 ovarian
  TGI: > 100 µM
OVCAR-5 ovarian
  TGI: > 100 µM
OVCAR-8 ovarian
  TGI: 38.1 µM
PC-3 prostate
  TGI: > 100 µM
RPMI-8226 leukemia
  TGI: > 100 µM
SF-268 CNS
  TGI: > 100 µM
SF-295 CNS
  TGI: > 100 µM
SF-539 CNS
  TGI: 86.7 µM
SK-MEL-2 melanoma
  TGI: 61.2 µM
SK-MEL-28 melanoma
  TGI: > 100 µM
SK-MEL-5 melanoma
  TGI: 46 µM
SK-OV-3 ovarian
  TGI: > 100 µM
SN12C renal
  TGI: 32.6 µM
SNB-19 CNS
  TGI: > 100 µM
SNB-75 CNS
  TGI: > 100 µM
SW-620 colon
  TGI: 66.2 µM
T-47D breast
  TGI: 79.7 µM
TK-10 renal
  TGI: > 100 µM
U251 CNS
  TGI: > 100 µM
UACC-257 melanoma
  TGI: > 100 µM
